Active and inactive are the calls of the source.
How the values were obtained:
[1] = microbe, parasite or virus in culture; type: functional; settings: Mycobacterium tuberculosis
[2] = molecular target: Nonstructural protein 1 (Influenza A virus, UniProt Q194T2); type: functional, Influenza A virus (A/California/07/2009(H1N1))
[3] = molecular target: T1, Short transient receptor potential channel 4 (Mus musculus, UniProt Q9QUQ5); assay: mouse TRPC4 channel inhibitors, dose response, cell-based, HEK293 TRPC4/mu-opioid, Fluo-4 calcium (AID 434942); type: functional;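 further: potency of inhibitors blocking the TRPC4 calcium response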
T1 sequence (Q9QUQ5 whole entry): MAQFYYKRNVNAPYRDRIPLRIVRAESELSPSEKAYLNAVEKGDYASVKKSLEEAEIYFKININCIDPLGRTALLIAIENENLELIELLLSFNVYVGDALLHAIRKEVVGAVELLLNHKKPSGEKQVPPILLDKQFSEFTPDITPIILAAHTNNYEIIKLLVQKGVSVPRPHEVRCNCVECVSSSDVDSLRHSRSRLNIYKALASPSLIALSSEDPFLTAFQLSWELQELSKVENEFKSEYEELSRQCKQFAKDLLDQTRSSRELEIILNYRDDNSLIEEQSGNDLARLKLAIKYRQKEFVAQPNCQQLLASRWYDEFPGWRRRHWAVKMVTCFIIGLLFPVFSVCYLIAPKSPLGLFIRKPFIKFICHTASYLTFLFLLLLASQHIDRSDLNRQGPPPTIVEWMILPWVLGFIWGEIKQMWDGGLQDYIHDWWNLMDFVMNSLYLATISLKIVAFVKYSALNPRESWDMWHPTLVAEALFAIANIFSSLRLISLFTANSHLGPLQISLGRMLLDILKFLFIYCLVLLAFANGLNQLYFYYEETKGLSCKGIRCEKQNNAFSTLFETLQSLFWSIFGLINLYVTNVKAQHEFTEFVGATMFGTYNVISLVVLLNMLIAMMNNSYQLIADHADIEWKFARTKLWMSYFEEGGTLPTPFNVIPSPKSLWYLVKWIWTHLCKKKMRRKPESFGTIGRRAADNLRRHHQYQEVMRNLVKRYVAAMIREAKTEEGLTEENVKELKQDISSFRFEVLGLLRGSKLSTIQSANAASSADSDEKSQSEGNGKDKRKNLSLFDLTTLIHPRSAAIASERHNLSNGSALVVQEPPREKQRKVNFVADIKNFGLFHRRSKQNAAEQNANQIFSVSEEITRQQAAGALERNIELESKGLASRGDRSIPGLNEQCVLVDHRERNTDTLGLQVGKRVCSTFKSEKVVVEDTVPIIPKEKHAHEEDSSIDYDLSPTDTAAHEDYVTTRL

[4] = molecular target: Prothrombin (Homo sapiens, UniProt P00734); assay: Thrombin 1536 HTS Dose Response Confirmation. [Related pubchem assays: 1046 (Thrombin 1536 HTS; hits were confirmed in this assay)]; type: functional
[5] = molecular target: Cytochrome P450 2C9 (Homo sapiens, UniProt P11712)
[6] = molecular target: DNA dC->dU-editing enzyme APOBEC-3G (Homo sapiens, UniProt Q9HC16); assay: Dose Response confirmation of small molecule APOBEC3G DNA Deaminase Inhibitors via a fluorescence-based single-stranded DNA deaminase assay. [Related pubchem assays (depositor defined):AID493012, AID493028]; type: functional
[7] = HEp-2 cell cytotoxicity, dose response, cytotoxicity control for RSV inhibitor project, HTS (AID 2410); type: functional; settings: human respiratory syncytial virus
[8] = molecular target: Cytochrome P450 3A4 (Homo sapiens, UniProt P08684);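 further: CYP3A4 tested as one member of a cytochrome P450 panel screen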
[9] = molecular target: FAD-linked sulfhydryl oxidase ALR (Homo sapiens, UniProt P55789); assay: inhibitors of human ALR sulfhydryl oxidase, dose response, biochemical, H2O2 detection, luminescence, cherry-pick (AID 493248)
[10] = HeLa cell cytotoxicity, dose response, cytotoxicity control for MgcRacGAP inhibitor project (AID 624300); type: functional
[11] = molecular target: T2, Rac GTPase-activating protein 1 (Homo sapiens, UniProt Q9H0H5); assay: MgcRacGAP GTPase-activating activity inhibitors, confirmation, biochemical, ADP Hunter fluorescence, primary and confirmatory (AID 624330); type: functional
T2 sequence (Q9H0H5 whole entry): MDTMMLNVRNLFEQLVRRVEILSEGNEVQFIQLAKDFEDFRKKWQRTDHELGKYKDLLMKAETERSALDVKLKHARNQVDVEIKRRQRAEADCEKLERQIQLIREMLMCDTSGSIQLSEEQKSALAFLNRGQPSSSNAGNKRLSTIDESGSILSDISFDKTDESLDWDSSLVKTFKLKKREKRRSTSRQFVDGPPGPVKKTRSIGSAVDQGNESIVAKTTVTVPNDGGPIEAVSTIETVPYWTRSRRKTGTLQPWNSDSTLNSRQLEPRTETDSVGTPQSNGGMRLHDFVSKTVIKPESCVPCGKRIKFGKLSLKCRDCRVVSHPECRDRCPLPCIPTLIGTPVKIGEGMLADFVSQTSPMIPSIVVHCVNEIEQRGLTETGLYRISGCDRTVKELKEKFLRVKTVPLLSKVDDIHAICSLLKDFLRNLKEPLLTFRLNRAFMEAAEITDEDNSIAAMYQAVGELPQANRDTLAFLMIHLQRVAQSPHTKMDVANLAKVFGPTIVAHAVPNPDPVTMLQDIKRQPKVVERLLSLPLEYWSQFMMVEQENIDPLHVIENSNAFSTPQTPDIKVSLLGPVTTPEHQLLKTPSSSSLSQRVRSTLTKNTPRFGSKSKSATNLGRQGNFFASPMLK

[12] = molecular target: T3, RNA-binding protein pos-1 (Caenorhabditis elegans, UniProt G5EF15); assay: inhibitors of POS-1/mex-3 RNA binding, dose response, biochemical, fluorescence polarization (AID 1964);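 further: purified POS-1 fused to maltose binding protein made in E. coli; potency of compounds blocking POS-1 binding to fluorescent RNA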
T3 sequence (G5EF15 whole entry): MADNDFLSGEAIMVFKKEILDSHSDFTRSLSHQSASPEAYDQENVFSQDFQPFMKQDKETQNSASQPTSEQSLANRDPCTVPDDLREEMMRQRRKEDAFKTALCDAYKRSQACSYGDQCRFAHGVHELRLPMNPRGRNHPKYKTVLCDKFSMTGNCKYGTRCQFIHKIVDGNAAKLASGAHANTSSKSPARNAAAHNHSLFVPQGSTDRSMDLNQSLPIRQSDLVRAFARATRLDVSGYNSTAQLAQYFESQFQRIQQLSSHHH

[13] = molecular target: T4, Zinc finger protein mex-5 (Caenorhabditis elegans, UniProt Q9XUB2); assay: MEX-5/TCR-2 RNA interaction inhibitors, dose response, biochemical, C. elegans, fluorescence polarization (AID 1960)
T4 sequence (Q9XUB2 whole entry): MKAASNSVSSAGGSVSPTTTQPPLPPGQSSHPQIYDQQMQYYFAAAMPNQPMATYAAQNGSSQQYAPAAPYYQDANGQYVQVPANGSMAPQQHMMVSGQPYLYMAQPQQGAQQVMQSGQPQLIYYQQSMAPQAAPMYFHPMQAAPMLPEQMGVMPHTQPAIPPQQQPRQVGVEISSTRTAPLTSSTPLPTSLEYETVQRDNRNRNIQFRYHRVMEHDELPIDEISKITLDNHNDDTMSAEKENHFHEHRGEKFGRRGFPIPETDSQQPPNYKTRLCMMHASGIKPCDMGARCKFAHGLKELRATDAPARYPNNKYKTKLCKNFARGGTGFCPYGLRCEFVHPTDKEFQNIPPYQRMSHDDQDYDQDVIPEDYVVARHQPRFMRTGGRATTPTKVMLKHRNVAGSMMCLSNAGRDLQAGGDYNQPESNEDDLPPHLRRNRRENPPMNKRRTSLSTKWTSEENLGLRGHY

[14] = molecular target: T5, Leucine aminopeptidase (Plasmodium falciparum 3D7, UniProt Q8IL11); assay: P. falciparum M17LAP inhibitors, primary screen, biochemical, fluorogenic H-Leu-NHMec substrate, 1536-well (AID 1619); type: functional
T5 sequence (Q8IL11 whole entry): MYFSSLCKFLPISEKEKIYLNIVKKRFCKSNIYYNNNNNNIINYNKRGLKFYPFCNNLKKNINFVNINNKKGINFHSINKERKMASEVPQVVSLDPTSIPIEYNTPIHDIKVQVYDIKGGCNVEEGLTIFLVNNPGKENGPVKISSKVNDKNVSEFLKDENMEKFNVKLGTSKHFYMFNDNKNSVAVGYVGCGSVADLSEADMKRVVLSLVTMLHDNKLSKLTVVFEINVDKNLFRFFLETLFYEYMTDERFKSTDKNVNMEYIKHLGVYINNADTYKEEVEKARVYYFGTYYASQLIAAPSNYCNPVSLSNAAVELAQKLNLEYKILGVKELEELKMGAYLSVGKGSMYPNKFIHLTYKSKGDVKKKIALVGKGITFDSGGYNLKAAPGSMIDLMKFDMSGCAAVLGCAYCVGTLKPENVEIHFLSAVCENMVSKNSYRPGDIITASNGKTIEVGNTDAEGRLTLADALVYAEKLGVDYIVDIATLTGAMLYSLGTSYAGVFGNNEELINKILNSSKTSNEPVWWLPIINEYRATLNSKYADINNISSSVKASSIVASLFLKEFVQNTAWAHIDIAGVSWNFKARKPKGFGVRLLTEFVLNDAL

[15] = molecular target: Glyceraldehyde-3-phosphate dehydrogenase (Homo sapiens, UniProt P04406)
[16] = molecular target: T6, Heat shock factor protein 1 (Mus musculus, UniProt P38532); assay: inhibition of MG132-induced HSE-luciferase signal, confirmation, cell-based, NIH3T3, luminescence, dose retest (AID 2382); type: functional;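 further: NIH3T3 fibroblasts with HSF1-driven luciferase reporter stressed by proteasome inhibitor MG132; luminescence from HSF1-driven luciferase expression after 8 hours of MG132 stress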
T6 sequence (P38532 whole entry): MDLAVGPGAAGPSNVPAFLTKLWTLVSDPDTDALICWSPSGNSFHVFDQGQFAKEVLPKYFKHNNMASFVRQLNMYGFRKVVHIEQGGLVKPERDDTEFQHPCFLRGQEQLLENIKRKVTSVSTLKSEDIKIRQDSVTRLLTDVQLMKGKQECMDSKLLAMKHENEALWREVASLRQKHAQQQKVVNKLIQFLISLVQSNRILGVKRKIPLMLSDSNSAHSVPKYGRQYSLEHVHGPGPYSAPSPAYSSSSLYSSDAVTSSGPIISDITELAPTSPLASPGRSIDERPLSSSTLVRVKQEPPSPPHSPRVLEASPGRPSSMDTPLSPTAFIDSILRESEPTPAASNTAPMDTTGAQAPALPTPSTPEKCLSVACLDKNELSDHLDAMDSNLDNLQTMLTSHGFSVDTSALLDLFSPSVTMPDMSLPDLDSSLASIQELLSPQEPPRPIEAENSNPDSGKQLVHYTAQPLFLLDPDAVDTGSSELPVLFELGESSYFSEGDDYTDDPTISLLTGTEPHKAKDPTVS

[17] = P. falciparum Dd2 growth inhibitors, dose response, SYBR Green, cherry-picked samples (AID 1159567); type: functional, cell-based

Chain of FAD-linked sulfhydryl oxidase ALR (P55789 whole entry): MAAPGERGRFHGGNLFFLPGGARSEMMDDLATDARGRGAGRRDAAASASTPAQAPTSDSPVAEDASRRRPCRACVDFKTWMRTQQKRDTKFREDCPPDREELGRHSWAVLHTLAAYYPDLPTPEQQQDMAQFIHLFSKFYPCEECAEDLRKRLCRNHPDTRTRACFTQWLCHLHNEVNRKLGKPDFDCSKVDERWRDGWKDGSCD
Chain of Cytochrome P450 2C9 (P11712 whole entry): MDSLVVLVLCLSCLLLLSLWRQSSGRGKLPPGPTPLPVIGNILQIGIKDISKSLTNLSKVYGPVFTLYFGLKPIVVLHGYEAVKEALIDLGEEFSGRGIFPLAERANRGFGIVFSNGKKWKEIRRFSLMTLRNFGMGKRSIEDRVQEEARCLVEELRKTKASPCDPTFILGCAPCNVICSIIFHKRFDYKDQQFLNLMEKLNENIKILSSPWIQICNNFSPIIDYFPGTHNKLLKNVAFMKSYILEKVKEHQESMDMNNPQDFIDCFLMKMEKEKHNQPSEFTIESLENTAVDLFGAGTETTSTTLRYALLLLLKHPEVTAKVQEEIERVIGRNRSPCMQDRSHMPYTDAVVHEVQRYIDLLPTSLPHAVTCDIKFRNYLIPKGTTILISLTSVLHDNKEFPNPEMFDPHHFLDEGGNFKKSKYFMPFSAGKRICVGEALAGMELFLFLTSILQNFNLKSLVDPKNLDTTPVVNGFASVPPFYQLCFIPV
Chain of DNA dC->dU-editing enzyme APOBEC-3G (Q9HC16 whole entry): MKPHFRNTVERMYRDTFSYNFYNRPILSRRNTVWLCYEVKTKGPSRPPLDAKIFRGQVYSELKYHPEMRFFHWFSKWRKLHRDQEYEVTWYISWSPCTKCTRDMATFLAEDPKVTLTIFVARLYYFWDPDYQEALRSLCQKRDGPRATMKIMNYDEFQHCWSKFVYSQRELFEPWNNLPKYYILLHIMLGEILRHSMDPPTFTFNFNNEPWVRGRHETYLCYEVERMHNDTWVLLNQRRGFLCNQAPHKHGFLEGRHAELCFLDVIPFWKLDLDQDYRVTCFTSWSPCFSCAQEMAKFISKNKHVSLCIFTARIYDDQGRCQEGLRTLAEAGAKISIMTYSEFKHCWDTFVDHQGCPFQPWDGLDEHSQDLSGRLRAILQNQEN
Chain of Nonstructural protein 1 (Q194T2 whole entry): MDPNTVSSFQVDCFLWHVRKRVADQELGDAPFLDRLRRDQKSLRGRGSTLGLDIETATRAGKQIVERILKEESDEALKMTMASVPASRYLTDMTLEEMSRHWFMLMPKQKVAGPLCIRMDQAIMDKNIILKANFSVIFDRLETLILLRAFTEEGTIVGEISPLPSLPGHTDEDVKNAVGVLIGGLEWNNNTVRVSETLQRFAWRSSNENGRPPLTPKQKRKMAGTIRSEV
Chain of Cytochrome P450 3A4 (P08684 whole entry): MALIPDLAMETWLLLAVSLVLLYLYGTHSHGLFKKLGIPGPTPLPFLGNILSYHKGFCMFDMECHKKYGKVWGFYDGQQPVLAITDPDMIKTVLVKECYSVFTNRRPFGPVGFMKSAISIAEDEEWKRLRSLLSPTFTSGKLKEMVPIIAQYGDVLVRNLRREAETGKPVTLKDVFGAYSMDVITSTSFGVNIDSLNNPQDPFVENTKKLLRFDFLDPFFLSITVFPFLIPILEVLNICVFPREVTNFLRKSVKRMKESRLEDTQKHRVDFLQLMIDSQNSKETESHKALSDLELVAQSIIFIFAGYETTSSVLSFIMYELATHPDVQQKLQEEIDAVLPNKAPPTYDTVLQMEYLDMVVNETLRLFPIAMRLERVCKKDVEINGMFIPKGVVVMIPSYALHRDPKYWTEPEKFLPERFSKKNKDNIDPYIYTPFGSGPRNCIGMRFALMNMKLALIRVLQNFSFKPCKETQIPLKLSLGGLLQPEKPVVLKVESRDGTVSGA
Chain of Glyceraldehyde-3-phosphate dehydrogenase (P04406 whole entry): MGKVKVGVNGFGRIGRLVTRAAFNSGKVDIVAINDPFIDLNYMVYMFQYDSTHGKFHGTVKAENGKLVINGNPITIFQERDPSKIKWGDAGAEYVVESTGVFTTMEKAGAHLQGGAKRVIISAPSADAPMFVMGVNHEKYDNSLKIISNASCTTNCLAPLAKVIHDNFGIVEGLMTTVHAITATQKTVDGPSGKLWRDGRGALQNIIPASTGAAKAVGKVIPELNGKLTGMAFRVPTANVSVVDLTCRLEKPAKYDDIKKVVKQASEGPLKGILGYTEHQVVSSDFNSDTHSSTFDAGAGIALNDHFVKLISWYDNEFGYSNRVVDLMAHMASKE

Cc1ccc(C(c2nnnn2Cc2cccs2)N2CCN(Cc3ccc4c(c3)OCO4)CC2)cc1 (centres undefined)
CC50 [1]: > 40 µM (active) | IC50 [2]: > 100 µM (active)

OCC1(CCCc2ccccc2)CCN(Cc2cc(F)ccc2F)CC1
EC50 [3]: 4.22 µM (active)

Nc1nc(-c2cccnc2)nn1C(=O)c1ccc(F)cc1
IC50 [4]: 2.01 µM (active)

C[C@H](Br)C(=O)c1ccc2cc(Br)c3ccccc3c2c1
AC50 [5]: inconclusive

O=C(CCCSc1ccc(Cl)cc1)Nc1cc(S(=O)(=O)N2CCOCC2)ccc1O
IC50 [6]: 33.2 µM (active)

CCCC(=O)n1nc(-c2cccnc2)nc1NCc1ccc(OC)cc1
IC50 [4]: 0.0883 µM (active)

Nc1ccccc1C(=O)N=Nc1[nH]c(N)c2ccccc12
IC50 [2]: 20.7 µM (active)

CSc1nc(N)nc(-c2cccs2)c1C#N
CC50 [7]: > 25 µM (active) | AC50 [8]: 25.1 µM (inconclusive)

CCOC(=O)CCNC(=O)N1CCCC(CNS(=O)(=O)c2cccs2)C1 (centres undefined)
IC50 [4]: > 50 µM (not active)

COc1ccc2[nH]c(NCc3ccccc3)nc2c1
EC50 [3]: 1.68 µM (active)

CCn1c(/C=C/c2ccc(O)cc2)nc2ccccc2c1=O
AC50 [9]: 3.35 µM (active) | CC50 [10]: 100 µM (active) | IC50 [11]: 33.7 µM (active)

Cc1cccn2c(=O)c3cc(S(=O)(=O)c4ccccc4)c(=N)n(Cc4cccnc4)c3nc12
CC50 [7]: > 50 µM (active) | EC50 [12]: 8.88 µM (inconclusive) | EC50 [13]: 18.8 µM (inconclusive)

COc1ccc(NC(=O)CC2COc3ccccc3O2)c(OC)c1 (centres undefined)
IC50 [14]: 7.18 µM (active)

Cc1cc(C)n(CCOc2ccc(Cl)cc2Cl)n1
CC50 [7]: > 50 µM (active)

CCOc1cc(S(=O)(=O)NCc2ccc(OC)cc2)c(OCC)cc1-n1cnnn1
IC50 [4]: > 50 µM (not active)

O=C(NCc1ccc2c(c1)OCO2)c1cnc2ccc(S(=O)(=O)N3CCOCC3)cc2c1O
IC50 [4]: 0.845 µM (active)

COc1ccc(-c2ccnc3nc(Sc4ncc(C(F)(F)F)cc4Cl)nn23)cc1
CC50 [7]: 36.7 µM (active)

O=C1C(Cl)=C(N2CCN(c3ncccn3)CC2)C(=O)N1c1ccnc(Cl)c1
IC50 [15]: > 50 µM (inconclusive)

CCCCn1c(NCCO)nc2ccccc21
EC50 [3]: 1.68 µM (active)

O=C(N/N=C/c1coc2ccccc2c1=O)c1cccc([N+](=O)[O-])c1
IC50 [14]: 35.2 µM (active)

COc1ccc(/C=N/Nc2ccc(C(=O)O)cc2)cc1Br
IC50 [14]: 23.4 µM (active) | EC50 [16]: < 0.16 µM (active) | AC50 [9]: 0.837 µM (active)

CN(C)/C=N/c1ncc(C(=O)c2ccc3ccccc3c2)s1
AC50 [5]: inconclusive

COc1cccc(/C=N/NC(=S)Nc2cccc(C(=O)O)c2)c1
IC50 [14]: 15.7 µM (active)

Sc1nc2ccccc2n1Cc1ccccc1
IC50 [6]: 37.2 µM (active)

O=S(=O)(c1ccc(F)cc1)N1C[C@@H]2N[C@H](C1)[C@H]2c1ccc(-c2ccc(F)cc2)cc1
AC50 [17]: 2.1 µM (active)

COc1ccc2c3c(n(C)c2c1)[C@H](CO)N(C(=O)CC1CC1)CC31CCN(Cc2nccs2)CC1
AC50 [17]: 3.93 µM (active)

Reference: ChEMBL document CHEMBL1201862, “PubChem BioAssay data set” (2004)
